# From US9232799B2, “N-[(het)arylethyl)] pyrazole(thio)carboxamides and their heterosubstituted analogues” (BAYER INTELLECTUAL PROPERTY GMBH, priority 2010, dated 2016)
# “And” between values parts separate entries of the source, which are not always exact repeats. Equal entries are not always repeated. Where two headings read alike, the source gives them in different places.
# Assays:
# [1] = logP by HPLC on reversed-phase column (C 18), EEC Directive 79/831 Annex V.A8; type: physicochemical
# Experimental: In table 1, the logP values were determined in accordance with EEC Directive 79/831 Annex V.A8 by HPLC (High Performance Liquid Chromatography) on a reversed-phase column (C 18), using the method described below: Temperature: 40° C.; […]
# Leptosphaeria nodorum = assay: In vivo preventive test on Leptosphaeria nodorum (wheat); conditions: 500 ppm of active ingredient, evaluated 7-9 days after inoculation
# Description: One day after this treatment, the plants are inoculated with an aqueous spore suspension of Leptosphaeria nodorum.
# Sphaerotheca fuliginea = assay: In vivo preventive test on Sphaerotheca fuliginea (cucumber); conditions: 500 ppm of active ingredient, evaluated 7 days after inoculation
# Description: One day after this treatment, the plants are inoculated with an aqueous spore suspension of Sphaerotheca fuliginea.
# Pyrenophora teres = assay: In vivo preventive test on Pyrenophora teres (barley); conditions: 500 ppm of active ingredient, evaluated 7-9 days after inoculation
# Description: One day after this treatment, the plants are inoculated with an aqueous spore suspension of Pyrenophora teres.
# aflatoxines production = assay: microbe, parasite or virus in culture; type: cell-based, Aspergillus parasiticus; conditions: 50 μM
# Puccinia triticina = assay: In vivo preventive test on Puccinia triticina (wheat); conditions: evaluated 8 days after inoculation; for Efficacy: dose 500 ppm of active ingredient
# Fusarium graminearum = assay: microbe, parasite or virus in culture; type: cell-based; conditions: 50 μM
# Alternaria solani = assay: In vivo preventive test on Alternaria solani (tomato); conditions: 500 ppm of active ingredient, evaluated 7 days after inoculation
# Description: One day after this treatment, the plants are inoculated with an aqueous spore suspension of Alternaria solani.
# Botrytis cinerea = assay: In vivo preventive test on Botrytis cinerea (beans)
# Description: To test for preventive activity, young plants are sprayed with the preparation of active compound. After the spray coating has dried on, 2 small pieces of agar covered with growth of Botrytis cinerea are placed on each leaf.
# [2] = test system: Blumeria graminis f.sp. hordei; assay: In vivo preventive test on Blumeria graminis (barley); conditions: 500 ppm of active ingredient, evaluated 7 days after inoculation
# Description: (§1) To test for preventive activity, young plants are sprayed with the preparation of active compound or active compound combination at the stated rate of application.
# Septoria tritici = assay: In vivo preventive test on Septoria tritici (wheat); conditions: 500 ppm of active ingredient, evaluated 21 days after inoculation
# Description: as §1
# [3] = Botrytis cinerea, 48 h, preventive, beans, 500 ppm of active ingredient, lesion size 2 days after inoculation, read-out: Efficacy
Structure (SMILES),logP [1],Efficacy (Sphaerotheca fuliginea) [%],Efficacy (Pyrenophora teres),% Inhibition of Aflatoxin at 50 μM (aflatoxines production) [%],Efficacy (Puccinia triticina) [%],% Inhibition of fungal growth at 50 μM (Fusarium graminearum) [%],Efficacy (Alternaria solani) [%],further results
Cn1nc(C(F)F)c(C(=O)N(C[Si](C)(C)c2ccc3ccccc3c2)C2CC2)c1F [Example 245],4.36,100,100%,100,95,100,100,Efficacy (Leptosphaeria nodorum): 100%
CN(CCc1ccc(F)cc1)C(=O)c1c(C(F)F)nn(C)c1Cl [Example 24],2.66,–,95%,100,80,88,100,–
"CC(Cc1ncc(C(F)(F)F)cc1Cl)N(C(=O)c1cn(C)nc1C(F)F)C1CC1 (stereo not drawn) [compound CMP4, N-{1-[3-chloro-5-(trifluoromethyl)pyridin-2-yl]propan-2-yl}-N-cyclopropyl-3-(difluoromethyl)-1-methyl-1H-pyrazole-4-carboxamide, reference compound]",–,–,–,–,11,–,–,pest or weed control at 500 ppm (Botrytis cinerea; [3]): 0%
"Cc1nn(C)c(F)c1C(=O)NCCc1ncc(C(F)(F)F)cc1Cl [J-1 from WO-2004/074280, N-{2-[3-chloro-5-(trifluoromethyl)pyridin-2-yl]ethyl}-5-fluoro-1,3-dimethyl-1H-pyrazole-4-carboxamide, reference compound]",–,16,–,–,–,–,–,"Efficacy (Sphaerotheca fuliginea; listed as J-1): less than 20%; pest or weed control at 500 ppm (Botrytis cinerea; [3]): 0%; Efficacy (Botrytis cinerea; preventive, beans, 500 ppm of active ingredient, lesion size 2 days after inoculation, listed as J-1): no protection"
CN(CCc1cc(Cl)ccc1Cl)C(=O)c1c(C(F)F)nn(C)c1Cl [Example 95],3.33,–,100%,100,70,100,100,–
Cn1nc(C(F)F)c(C(=O)NC[Si](C)(C)c2ccccc2Cl)c1Cl [Example 232],3.69,–,–,–,95,–,–,–
CC(c1ccccc1Cl)C(C)N(C(=O)c1c(C(F)F)nn(C)c1F)C1CC1 (stereo not drawn) [Example 41],3.87,74,100%,100,–,100,100,Efficacy [2]: 100%; Efficacy (Leptosphaeria nodorum): 95%; Efficacy (Septoria tritici): 93%
"Cc1nn(C)c(F)c1C(=O)NC(C)Cc1ncc(C(F)(F)F)cc1Cl (stereo not drawn) [compound CMP6, N-{1-[3-chloro-5-(trifluoromethyl)pyridin-2-yl]propan-2-yl}-5-fluoro-1,3-dimethyl-1H-pyrazole-4-carboxamide, reference compound]",–,–,–,–,–,–,–,pest or weed control at 500 ppm (Botrytis cinerea; [3]): 0%
"CC(Cc1ccc(Cl)cc1)N(C(=O)c1cn(C)nc1C(F)F)C1CC1 (stereo not drawn) [F-3 from WO-2007/060164, N-[1-(4-chlorophenyl)propan-2-yl]-N-cyclopropyl-3-(difluoromethyl)-1-methyl-1H-pyrazole-4-carboxamide, reference compound]",–,–,–,–,–,–,–,"pest or weed control at 500 ppm (Botrytis cinerea; [3]): 0%; Efficacy (Botrytis cinerea; preventive, beans, 500 ppm of active ingredient, lesion size 2 days after inoculation, listed as F-3): no protection"
"Cn1cc(C(=O)N(C2CC2)C2CCCC2c2ccc(Cl)cc2Cl)c(C(F)F)n1 (stereo not drawn) [7 from WO-2010/09466, N-cyclopropyl-N-[2-(2,4-dichlorophenyl)cyclopentyl]-3-(difluoromethyl)-1-methyl-1H-pyrazole-4-carboxamide, reference compound]",–,–,–,–,–,–,–,"Efficacy (protection) (Puccinia triticina; preventive, 500 ppm of active ingredient): less than 5%"
Cn1nc(C(F)F)c(C(=O)NC[Si](C)(C)c2ccc(Cl)cc2Cl)c1F [Example 240],4.06,–,100% and 95%,100,100,84,100,Efficacy (Leptosphaeria nodorum): 95%
"Cc1nn(C)c(F)c1C(=O)N(C[Si](C)(C)c1cc(Cl)cc(Cl)c1)C1CC1 [compound CMP2, N-cyclopropyl-N-{[(3,5-dichlorophenyl)(dimethyl)silyl]methyl}-5-fluoro-1,3-dimethyl-1H-pyrazole-4-carboxamide, reference compound]",–,–,–,–,–,–,–,"pest or weed control at 500 ppm (Botrytis cinerea; Botrytis cinerea, 48 h, dose 500 ppm of active ingredient, table K10, read-out: Efficacy): 10%; pest or weed control at 500 ppm (Botrytis cinerea; [3]): < 10%"
Cn1nc(C(F)F)c(C(=O)NC(C)(C)C(=O)c2ncc(C(F)(F)F)cc2Cl)c1Cl [Example 195],3.39,91,100%,100,–,81,95,Efficacy (Leptosphaeria nodorum): 94%
Cn1nc(C(F)F)c(C(=O)N(C[Si](C)(C)c2ccccc2)C2CCCCC2)c1F [Example 229],4.86,–,70%,–,80,–,90,–
COC(CNC(=O)c1c(C(F)F)nn(C)c1F)c1cc(Cl)cc(Cl)c1 (stereo not drawn) [Example 107],3.33,–,95%,98,–,74,90,Efficacy [2]: 78%; Efficacy (Septoria tritici): 86%
CC(Cc1c(F)cccc1Cl)N(C(=O)c1c(C(F)F)nn(C)c1Cl)C1CC1 (stereo not drawn) [Example 119],3.94,–,100%,95,80,79,100,–
CC(Cc1cc(Cl)ccc1Cl)NC(=O)c1c(C(F)F)nn(C)c1Cl (stereo not drawn) [Example 93],3.53,95,100%,100,70,100,100,–
"Cn1cc(C(=O)NCCc2ccc(Cl)cc2Cl)c(C(F)F)n1 [compound CMP3, N-[2-(2,4-dichlorophenyl)ethyl]-3-(difluoromethyl)-1-methyl-1H-pyrazole-4-carboxamide, reference compound]",–,–,–,–,–,–,–,"pest or weed control at 100 ppm (Botrytis cinerea; Botrytis cinerea, 48 h, preventive, beans, 100 ppm of active ingredient, lesion size 2 days after inoculation, read-out: Efficacy): 0%"
CC(Cc1cc(Cl)cc(Cl)c1)NC(=O)c1c(C(F)F)nn(C)c1Cl (stereo not drawn) [Example 104],3.67,86,100%,100,70,98,95,–
CC(c1ccccc1Cl)C(C)N(C(=S)c1c(C(F)F)nn(C)c1F)C1CC1 (stereo not drawn) [Example 43],4.72,100,100%,100,–,90,90,Efficacy (Leptosphaeria nodorum): 100%
CC(Cc1ccccc1Cl)NC(=O)c1c(C(F)F)nn(C)c1Cl (stereo not drawn) [Example 33],3.15,93,100%,100,80,100,100,–
"Cc1nn(C)c(Cl)c1C(=O)NC(C)(C)C(=O)c1ccc2ccccc2c1 [2-1 from WO-2006/016708, 5-chloro-1,3-dimethyl-N-[2-methyl-1-(2-naphthyl)-1-oxopropan-2-yl]-1H-pyrazole-4-carboxamide, reference compound]",–,–,–,–,–,–,–,pest or weed control at 500 ppm (Botrytis cinerea; [3]): < 30%
CC(Cc1cccc(Oc2ccccc2)c1)NC(=O)c1c(C(F)F)nn(C)c1Cl (stereo not drawn) [Example 147],3.80,–,100%,93,70,77,100,–
CC(Cc1cc(Cl)cc(Cl)c1)NC(=O)c1c(C(F)F)nn(C)c1F (stereo not drawn) [Example 102],3.48,–,100%,100,70,100,95,–
Cn1nc(C(F)F)c(C(=O)NC[Si](C)(C)c2ccc(Cl)cc2Cl)c1Cl [Example 239],4.25,–,–,–,70,–,90,–
"Cn1cc(C(=O)N[C@H]2C[C@H]2c2ccc(Cl)cc2)c(C(F)F)n1 [1.001 from WO-2007/134799, N-[(1S,2S-1R′,2R)-2-(4-chlorophenyl)cyclopropyl]-3-(difluoromethyl)-1-methyl-1H-pyrazole-4-carboxamide, reference compound]",–,–,–,–,–,–,–,"Efficacy (Botrytis cinerea; preventive, beans, 100 ppm of active ingredient, lesion size 2 days after inoculation): 8%; Efficacy (Botrytis cinerea; preventive, beans, 100 ppm of active ingredient, lesion size 2 days after inoculation, listed as 1.001): less than 10%; Efficacy (Botrytis cinerea; preventive, beans, 500 ppm of active ingredient, lesion size 2 days after inoculation): 89%; Efficacy (Botrytis cinerea; preventive, beans, 500 ppm of active ingredient, lesion size 2 days after inoculation, listed as 1.001): at least 85%"
